Columns and labels:
Assay type in all cases: cell-based, human
A549 lung cancer cell = assay: MTT anti-proliferative assay, A549; settings: for IC50: MTT, 48 h
Description: (§1) The anti-proliferation activities of the synthesized analogs were assessed by an in vitro MTT assay conducted on thirteen human cell lines. Their cytotoxic activities were evaluated by measuring the inhibition of net cell growth. […]
(§2) 1.6. Cell lines and cell culture
(§3) MTT was purchased from Sigma-Aldrich Co. (St. Louis, MO, USA). The PI and Annexin V-FITC apoptosis detection kit were purchased from Invitrogen (Eugene, OR, USA). All human cell lines were used in this study. […]
(§4) cell, MCF-7 breast cancer cell, MCF-10A normal breast cell, Raji B lymphoblastoid cell and diffuse large B-cell lymphoma SU-DHL-10 cell were initially purchased from American Type Culture Collection (ATCC, Manassas, Virginia). media, DMEM, and FBS were provided from Gibco Company.
(§5) 1.7. Cell growth inhibition assay (MTT assay)
(§6) The experiment was carried out according to the method of reference. Briefly, cells were plated in 96-well plates at a den- […]
(§7) the anti-proliferative activities were determined by MTT assay. […]
(§8) (Becton-Dickinson, Franklin Lakes, NJ). […]

AGS gastric cancer cell = assay: MTT anti-proliferative assay, AGS; settings: for IC50: MTT, 48 h
Description: as §1, §2, §3, §4, §5, §6, §7, §8

[1] = tested on: BEL-7402 liver cancer cell; assay: MTT anti-proliferative assay, BEL-7402; settings: for IC50: MTT, 48 h
Description: as §1, §2, §3, §4, §5, §6, §7, §8

[2] = tested on: HCT116 colectal cancer cell; assay: MTT anti-proliferative assay, HCT116; settings: for IC50: MTT, 48 h, read-out: IC50 HCT-116
Description: as §1, §2, §3, §4, §5, §6, §7, §8

[3] = tested on: HeLa cervical cancer cell; assay: MTT anti-proliferative assay, HeLa; settings: MTT, 48 h
Description: as §1, §2, §3, §4, §5, §6, §7, §8

HepG2 hepatoma cell = assay: MTT anti-proliferative assay, HepG2; settings: for IC50: MTT, 48 h, read-out: IC50 HepG-2
Description: as §1, §2, §3, §4, §5, §6, §7, §8

L-02 normal liver cell = assay: MTT assay, L-02 normal cells; settings: 48 h
Description: as §1, §2, §3, §4, §5, §6, §7, §8

[4] = tested on: MGC-803 late stage differentiation gastric cancer cell; assay: MTT anti-proliferative assay, MGC-803; settings: for IC50: MTT, 48 h
Description: as §1, §2, §3, §4, §5, §6, §7, §8

MCF-7 breast cancer cell = assay: MTT anti-proliferative assay, MCF-7; settings: for IC50: MTT, 48 h
Description: as §1, §2, §3, §4, §5, §6, §7, §8

[5] = tested on: MCF-10A normal breast cell; assay: MTT assay, MCF-10A normal cells; settings: 48 h
Description: as §1, §2, §3, §4, §5, §6, §7, §8

[6] = tested on: Raji B lymphoblastoid cell; assay: MTT anti-proliferative assay, Raji; settings: for IC50: MTT, 48 h, read-out: IC50 Raji
Description: as §1, §2, §3, §4, §5, §6, §7, §8

[7] = tested on: SGC-7901 early differentiation gastric cancer cell; assay: MTT anti-proliferative assay, SGC-7901; settings: for IC50: MTT, 48 h
Description: as §1, §2, §3, §4, §5, §6, §7, §8

[8] = tested on: diffuse large B-cell lymphoma SU-DHL-10 cell; assay: MTT anti-proliferative assay, SU-DHL-10; settings: for IC50: MTT, 48 h, read-out: IC50 SU-DHL-10
Description: as §1, §2, §3, §4, §5, §6, §7, §8

| Compound | IC50 (A549 lung cancer cell) | SI (selectivity index), IC50 (L-02)/IC50 (AGS) (AGS gastric cancer cell) | IC50 (AGS gastric cancer cell) | IC50 [1] | SI (selectivity index), IC50 (L-02)/IC50 (HCT-116) [2] | IC50 [2] | IC50 [3] | IC50 (HepG2 hepatoma cell) | IC50 (L-02 normal liver cell) | IC50 [4] | IC50 (MCF-7 breast cancer cell) | IC50 [5] | SI (selectivity index), IC50 (L-02)/IC50 (Raji) [6] | IC50 [6] | IC50 [7] | IC50 [8] | further results |
| --- | --- | --- | --- | --- | --- | --- | --- | --- | --- | --- | --- | --- | --- | --- | --- | --- | --- |
| CCc1ccc(/C=C(\C#N)c2ccc(OC(F)(F)F)cc2)cc1 [Compound 1a2f] | > 100 µM | > 6.8 | 14.6 ± 5.9 µM | > 100 µM | > 2.2 | 43.5 ± 3.8 µM | > 100 µM | > 100 µM | > 100 µM | 56.7 ± 11 µM | 59.9 ± 2.3 µM | > 100 µM | > 2.3 | 42.7 ± 3.4 µM | 77.9 ± 12.6 µM | 15.1 ± 11.6 µM | SI (selectivity index), IC50 (L-02)/IC50 (MGC-803) [4]: > 1.7; SI (selectivity index), IC50 (MCF-10A)/IC50 (MCF-7) (MCF-7 breast cancer cell): > 1.6; SI (selectivity index), IC50 (L-02)/IC50 (SGC-7901) [7]: > 1.2; SI (selectivity index), IC50 (L-02)/IC50 (SU-DHL-10) [8]: > 6.6 |
| CC(C)c1ccc(/C=C(\C#N)c2ccc(OC(F)(F)F)cc2)cc1 [Compound 1a2g] | 71.6 ± 24.7 µM | > 11.4 | 8.7 ± 2.1 µM | > 100 µM | > 1.7 | 57.4 ± 7.8 µM | > 100 µM | > 100 µM | > 100 µM | > 100 µM | > 100 µM | > 100 µM | > 1.5 | 66.6 ± 13.3 µM | 89.9 ± 5.6 µM | 27.3 ± 5.3 µM | SI (selectivity index), IC50 (L-02)/IC50 (A549) (A549 lung cancer cell): > 1.3; SI (selectivity index), IC50 (L-02)/IC50 (SGC-7901) [7]: > 1.1; SI (selectivity index), IC50 (L-02)/IC50 (SU-DHL-10) [8]: > 3.6 |
| CN(C)c1ccc(/C=C(\C#N)c2ccc(OC(F)(F)F)cc2)cc1 [Compound 1a2h] | > 100 µM | > 1.4 | 69.6 ± 15.7 µM | 24.1 ± 2.8 µM | > 11.4 | 8.7 ± 1.7 µM | > 100 µM | > 100 µM | > 100 µM | 16.8 ± 0.7 µM | > 100 µM | > 100 µM | > 1.4 | 67.4 ± 31.7 µM | 19.7 ± 1.5 µM | > 100 µM | SI (selectivity index), IC50 (L-02)/IC50 (BEL-7402) [1]: > 4.1; SI (selectivity index), IC50 (L-02)/IC50 (MGC-803) [4]: > 5.9; SI (selectivity index), IC50 (L-02)/IC50 (SGC-7901) [7]: > 5.0 |
| CCN(CC)c1ccc(/C=C(\C#N)c2ccc(OC(F)(F)F)cc2)cc1 [Compound 1a2i] | > 100 µM |  | > 100 µM | > 100 µM |  | > 100 µM | > 100 µM | > 100 µM | > 100 µM | > 100 µM | > 100 µM | > 100 µM | > 2.2 | 45.1 ± 15.6 µM | > 100 µM | > 100 µM |  |
| COc1ccc(/C=C(\C#N)c2ccc(OC(F)(F)F)cc2)cc1 [Compound 1a2j] | > 100 µM | > 4.7 | 21.1 ± 5.2 µM | > 100 µM | > 2.3 | 42.5 ± 12.3 µM | > 100 µM | 72.6 ± 25.3 µM | > 100 µM | > 100 µM | > 100 µM | 94.1 ± 3.5 µM |  | > 100 µM | > 100 µM | > 100 µM | SI (selectivity index), IC50 (L-02)/IC50 (HepG-2) (HepG2 hepatoma cell): > 1.3 |
| COc1cccc(/C=C(\C#N)c2ccc(OC(F)(F)F)cc2)c1 [Compound 1a2k] | > 100 µM |  | > 100 µM | > 100 µM |  | > 100 µM | > 100 µM | > 100 µM | > 100 µM | > 100 µM | > 100 µM | > 100 µM |  | > 100 µM | > 100 µM | > 100 µM |  |
| COc1cc(/C=C(\C#N)c2ccc(OC(F)(F)F)cc2)cc(OC)c1OC [Compound 1a2l] | > 100 µM |  | > 100 µM | > 100 µM |  | > 100 µM | > 100 µM | > 100 µM | > 100 µM | > 100 µM | > 100 µM | > 100 µM |  | > 100 µM | > 100 µM | > 100 µM |  |
| CCCOc1ccc(/C=C(\C#N)c2ccc(OC(F)(F)F)cc2)cc1 [Compound 1a2m] | > 100 µM | > 1.4 | 87.2 ± 5.9 µM | > 100 µM |  | > 100 µM | > 100 µM | > 100 µM | > 100 µM | > 100 µM | > 100 µM | > 100 µM |  | > 100 µM | > 100 µM | > 100 µM |  |
| CCCCOc1ccc(/C=C(\C#N)c2ccc(OC(F)(F)F)cc2)cc1 [Compound 1a2n] | > 100 µM |  | > 100 µM | > 100 µM |  | > 100 µM | > 100 µM | > 100 µM | > 100 µM | > 100 µM | > 100 µM | > 100 µM |  | > 100 µM | > 100 µM | > 100 µM |  |
| CCCCCOc1ccc(/C=C(\C#N)c2ccc(OC(F)(F)F)cc2)cc1 [Compound 1a2o] | > 100 µM |  | > 100 µM | > 100 µM |  | > 100 µM | > 100 µM | > 100 µM | > 100 µM | > 100 µM | > 100 µM | > 100 µM |  | > 100 µM | > 100 µM | > 100 µM |  |
| CCCCCCOc1ccc(/C=C(\C#N)c2ccc(OC(F)(F)F)cc2)cc1 [Compound 1a2p] | > 100 µM |  | > 100 µM | > 100 µM |  | > 100 µM | > 100 µM | > 100 µM | > 100 µM | > 100 µM | > 100 µM | > 100 µM |  | > 100 µM | > 100 µM | > 100 µM |  |
| Cc1cccc(/C=C(\C#N)c2ccc(OC(F)(F)F)cc2)c1 [Compound 1a2q] | > 100 µM |  | > 100 µM | > 100 µM |  | > 100 µM | > 100 µM | > 100 µM | > 100 µM | > 100 µM | > 100 µM | > 100 µM |  | > 100 µM | > 100 µM | > 100 µM |  |
